System: SKOV3 cells (human ovarian carcinoma)
Experiment: SKOV3 subcutaneous xenograft tumor growth inhibition in female SCID mice
Type: in vivo
Conditions: 21 days, alone, SKOV3 tumors in SCID mice
Method: Female SCID mice were implanted subcutaneously with 5×10^6 SKOV3 cells (human ovarian carcinoma). When the tumor volume reached 300-400 mm^3, mice were block randomized to different treatment groups (n=8 mice/group). Mice received AKT inhibitor, Compound B (in this assay, Compound B, is used in the form of the free or unsalted compound), at 10 or 30 mg/kg, once daily (SID) for 21 days in 20% PEG-400, 1% DMSO in water. Compound A (in this assay, Compound A, is used in the form of monohydrochloride salt) was administered at 100 mg/kg, twice/day (BID) for 21 days either alone or in combination with Compound B. Mice were weighed and tumors measured by calipers twice weekly. Tumor volumes were calculated using the formula: tumor volume=(Length×Width^2)/2. The percentage of tumor growth inhibition was calculated on each day of tumor measurement using the formula: 100×[1-(average growth of the compound-treated tumors/average growth of vehicle-treated control tumors)].

Cc1ccc(Nc2nccc(N(C)c3ccc4c(C)n(C)nc4c3)n2)cc1S(N)(=O)=O [Compound A, 5-[[4-[(2,3-dimethyl-2H-indazol-6-yl)methylamino]-2-pyrimidinyl]amino]-2-methylbenzenesulfonamide, reference compound]
inhibition of tumor growth compared to vehicle treated mice (Compound A (monohydrochloride salt) 100 mg/kg, twice daily): 47%

Cn1ncc(Cl)c1-c1cc(C(=O)N[C@H](CN)Cc2ccc(F)c(F)c2)oc1Cl [Compound B, N-{(1S)-2-amino-1-[(3,4-difluorophenyl)methyl]ethyl}-5-chloro-4-(4-chloro-1-methyl-1H-pyrazol-5-yl)-2-furancarboxamide]
inhibition of tumor growth compared to vehicle treated mice (Compound B (free compound) 10 mg/kg, once daily): 67%
inhibition of tumor growth compared to vehicle treated mice (Compound B (free compound) 30 mg/kg, once daily): 86%
